# Data taken from patent US10836792B2, “Retro-inverso peptide inhibitors of cell migration, extracellular matrix and endothelial invasion by tumor cells” (ISTITUTO NAZIONALE TUMORI IRCCS “FONDAZIONE G. PASCALE”, priority 2016, dated 2020).
# Non-standard residues stand in square brackets, D forms with d. Residues, ends and D or L forms follow the SMILES beside them. Aib = CC(C)(N)C(=O)O
# Legend:
# FPR1 = target: T1, FPR1 (Homo sapiens, UniProt P21462); experiment: Competition with FITC-fMLF binding to RBL-2H3/ETFR cells stably expressing FPR1; settings: 100 nM pre-incubation 60 min at 4° C., then 10 nM FITC-fMLF
# T1 construct: expressed in transfected cells; host or cells: rat basophilic leukaemia RBL-2H3/ETFR cells
# T1 sequence (P21462 1-350): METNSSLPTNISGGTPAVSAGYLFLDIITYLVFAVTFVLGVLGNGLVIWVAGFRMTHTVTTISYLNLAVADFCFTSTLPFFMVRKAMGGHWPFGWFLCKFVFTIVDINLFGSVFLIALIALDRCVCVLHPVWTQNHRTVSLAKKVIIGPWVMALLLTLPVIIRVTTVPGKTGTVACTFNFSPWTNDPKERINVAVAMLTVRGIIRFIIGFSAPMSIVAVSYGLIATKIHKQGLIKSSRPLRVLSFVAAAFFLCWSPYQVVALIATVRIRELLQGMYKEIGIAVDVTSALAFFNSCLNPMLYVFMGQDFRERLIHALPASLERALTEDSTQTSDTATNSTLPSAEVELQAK
# Description: Cell-associated fluorescence was measured using a fluorescence plate reader. The results are depicted in FIG. 3. […] To evaluate the effect of RI-3 on agonist-dependent FPR1 internalization, binding experiments were performed at 37° C. and cells were visualized using a Zeiss 510 Meta LSM microscope. Original magnifications: 630×. Scale bar: 10 μm.
# HT1080 cells = experiment: FBS-directed matrigel invasion of HT1080 cells (xCELLigence RTCA); format: cell-based, human
# Source text: FIG. 5 Peptides RI-1, RI-2, RI-3, RI-4 and RI-5 reduced by 33%, 35%, 81%, 52% and 11%, respectively, the extent of FBS-directed matrigel invasion of HT1080 cells (A), as assessed in real time using the xCELLigence RTCA technology. The inhibitory effect of RI-3 is dose-dependent (B) (Example 5).
# Cell migration is a prerequisite for cancer invasion. Therefore, we investigated whether retro-inverso peptides prevent matrigel invasion of HT1080 cells using the xCELLigence RTCA technology. Cells were seeded on polymerized matrigel and lower chambers were filled with DMEM (CTRL), growth medium (None) or growth medium with 10 nM the indicated peptides (A), or with increasing concentrations of RI-3 (B). Matrigel invasion was monitored in real time for 20 (A) or 18 (B) hrs at 37° C., 5% CO2 and the impedance values were automatically monitored as changes in cell index. Data represent means±SD from quadruplicate experiments, each representative of 2 replicates. HT1080 cells were able to cross matrigel in the presence of 10% FBS. All retro-inverso peptides caused a reduction of FBS-directed cell migration although to different extent.
# [1] = system: human osteosarcoma Saos-2; experiment: Matrigel invasion (xCELLigence RTCA), Saos-2; format: cell-based; settings: 10 nM, 20 hrs
# Description: FIG. 8 At the concentration of 10 nM the retro-inverso peptide RI-3 prevents matrigel invasion of tumor cells from human osteosarcoma Saos-2 (A), chondrosarcoma Sarc (B), melanoma A375 (C), metastatic melanoma A375M6 (D), ovarian carcinoma SKOV-3 cells (E), or primary ovarian cancer cells derived from a tumor excision (OV-53) (F), as monitored in real-time for 20 hr as changes in cell index by the xCELLigence RTCA system (Example 8).
# To investigate the ability of RI-3 to prevents matrigel invasion of tumor cells form different tissue origins, human osteosarcoma Saos-2 (A), chondrosarcoma Sarc (B) melanoma A375 (C), metastatic melanoma A375M6 (D), ovarian carcinoma SKOV-3 cells (E) or primary ovarian cancer cells derived from a tumor excision (OV-53) (F) were seeded on polymerized matrigel and allowed to invade matrigel in the absence (None) or in the presence of 10 nM RI-3. Cell invasion was monitored in real-time for 20 hrs as changes in cell index by the xCELLigence RTCA system. Data represent mean±SD from quadruplicate experiments. All cell lines were able to cross matrigel, although to a different extent. In all case RI-3 reduced matrigel invasion by about 30%, 31%, 64%, 57%, 53% and 68%, of Saos-2, Sarc, A375, A375M6, SKOV-3 and OV-53 cells, respectively.
# human Sarc cells = experiment: Human Sarc cell tumors in the flank of CD1 nude mice; format: in vivo; settings: 6 mg/Kg i.p. every day for 10 days
# Description: FIG. 11 The intraperitoneal (i.p.) administration of 6 mg/Kg of the retro-inverso peptide RI-3 every day for 10 days reduces in vivo tumor growth and vascular infiltration by human chondrosarcoma Sarc cells in nude mice. (A) Time-dependent average of treated and control mice. (B) Tumor volumes measured at different time points. (C) Tumors excised after 10 days. (D) CD31 immuno-staining of formalin fixed paraffin sections of the excised tumors. (E) Counts of vascular channels harboring red blood cells on CD31 immuno-stained sections. (F) Quantification of Circulating Tumor Cells (CTCs). (Example 11)
# Ten six-eight week old, CD1 female nude mice received the injection of human Sarc cells as a single-cell suspension (1×10^6 cells in 100 μl PBS, 96% viability) into the right flank. Five animals received i.p-administration of 6 mg/Kg RI-3 every day for 10 days, and five received injections of vehicle only (CTRL). A. Time-dependent average weight was monitored every two days. B. Tumor volumes measured at different time points with a caliper, using the formula: ½×(width)^2×length (mm). After 10 days, blood samples (˜500 μL/mouse) from the retroorbital venous plexus of mice were collected and processed for determination of Circulating Tumor Cells (CTC)s. Then, animals were sacrificed and the excised tumors (C) were fixed in buffered formalin and processed for paraffin sectioning. Tumor vascularization was assessed by counting vascular channels harbouring red blood cells on CD31 immuno-stained sections (D) in 5 randomly chosen fields per section, in at least two sections per tumor at ×200 (E). To quantify CTCs, DNA from nucleated cells of murine blood samples was purified and quantitated by Real-Time PCR using primers targeting human Alu-sequences. Number of CTCs was calculated by comparing the obtained amplification curves with others generated in spiking experiments, which were included in every run (F).
# Tumor volumes of vehicle- and RI-3-treated mice were 445+/−285 and 112+/−41 mm^3, respectively, with p<0.05 (B). After 10 days, animals were sacrificed and tumors excised (C). According with the ability of RI-3 to prevent in vitro formation of a capillary network, the intratumoral microvessel density was reduced in tumors from animals treated with RI-3 as compared to those treated with vehicle alone (D-E).
structure (smiles),measurement,setting,value
"CC(=O)N[C@H](Cc1ccc(O)cc1)C(=O)N[C@H](CCCNC(=N)N)C(=O)NC(C)(C)C(=O)N[C@H](CCCNC(=N)N)C(N)=O [RI-3, Ac-(D)-Tyr-(D)-Arg-Aib-(D)-Arg-NH2] (Ac-[dY][dR][Aib][dR]-NH2)",inhibition of binding of fluorescent agonist (FITC-fMLF) to RBL-2H3/ETFR cells,FPR1,to a similar extent as compared to fMLF
same,reduction of the extent of FBS-directed cell invasion (matrigel),"HT1080 cells; 10 nM peptide, growth medium, 20 hrs",81%
same,dose dependence of the inhibition of matrigel invasion,"HT1080 cells; increasing concentrations, 18 hrs",maximal effect being reached in the nanomolar range
same,reduction of matrigel invasion,[1],about 30%
same,body weight,human Sarc cells,without clear changes in body weight
same,mice with CTCs in blood samples,human Sarc cells,3/5
same,reduction of the number of circulating sarcoma cells in murine blood samples,human Sarc cells,74.5%
same,signs of toxicity,human Sarc cells,no signs of toxicity
same,tumor volume,human Sarc cells,112+/−41 mm^3
same,Circulating Tumor Cells in blood,human Sarc cells; blood after 10 days,2.4+/−2 CTCs/mL
same,intratumoral microvessel density (CD31),human Sarc cells; vs vehicle,reduced
